# Data published in ChEMBL document CHEMBL4002616, “Functionalized triazines as potent HCV entry inhibitors” (Bioorg Med Chem Lett, 2017).
# Legend:
# [1] = Metabolic stability in human liver microsomes assessed as parent compound remaining after 10 mins; assay type: ADME, microsome; settings: read-out: Stability
# [2] = (§1) Metabolic stability in rat liver microsomes assessed as parent compound remaining after 10 mins; assay type: ADME, microsome; settings: liver microsomes, read-out: Stability
# [3] = Clearance in rat at 2 mg/kg, iv; assay type: ADME, organism-based; settings: in vivo
# [4] = Volume of distribution at steady state in rat at 2 mg/kg, iv or 5 mg/kg, po; assay type: ADME, organism-based; settings: in vivo, read-out: Vdss
# [5] = Plasma half life in rat at 2 mg/kg, iv; assay type: ADME, organism-based
# Rattus norvegicus = test: AUC in rat at 5 mg/kg, po; assay type: ADME, organism-based; settings: in vivo, BLD = below limit of detection
# Liver = test: as §1; assay type: ADME, microsome; settings: microsomes, 10 min
SMILES,remaining at 10 min [1] [%],remaining at 10 min [2] [%],other results
CC(C)(C)OC(=O)NCCS(=O)(=O)NC(=O)c1ccc(Nc2nc(NC3(c4ccc(Cl)cc4)CC3)nc(OCC(F)(F)F)n2)cc1,92,93,–
CC(C)OC(=O)NCCS(=O)(=O)NC(=O)c1ccc(Nc2nc(NC3(c4ccc(Cl)cc4)CC3)nc(OCC(F)(F)F)n2)cc1,100,73,–
CC(C)(C)NC(=O)NCCS(=O)(=O)NC(=O)c1ccc(Nc2nc(NC3(c4ccc(Cl)cc4)CC3)nc(OCC(F)(F)F)n2)cc1,96,93,–
CC(C)NC(=O)NCCS(=O)(=O)NC(=O)c1ccc(Nc2nc(NC3(c4ccc(Cl)cc4)CC3)nc(OCC(F)(F)F)n2)cc1,100,97,–
Cc1ccccc1S(=O)(=O)NC(=O)c1ccc(Nc2nc(NC3(c4ccc(Cl)cc4)CC3)nc(OCC(F)(F)F)n2)cc1,100,100,–
O=C(NS(=O)(=O)CCNC(=O)C1CC1)c1ccc(Nc2nc(NC3(c4ccc(Cl)cc4)CC3)nc(OCC(F)(F)F)n2)cc1,90,–,Stability (Liver): Not Active
O=C(NS(=O)(=O)c1ccc(F)cc1)c1ccc(Nc2nc(NC3(c4ccc(Cl)cc4)CC3)nc(OCC(F)(F)F)n2)cc1,100,99,–
O=C(NS(=O)(=O)c1ccccc1)c1ccc(Nc2nc(NC3(c4ccc(Cl)cc4)CC3)nc(OCC(F)(F)F)n2)cc1,100,100,–
O=C(NS(=O)(=O)CCNCc1ccccc1)c1ccc(Nc2nc(NC3(c4ccc(Cl)cc4)CC3)nc(OCC(F)(F)F)n2)cc1,99,100,–
O=C(NS(=O)(=O)CCN1CCOCC1)c1ccc(Nc2nc(NC3(c4ccc(Cl)cc4)CC3)nc(OCC(F)(F)F)n2)cc1,78,97,–
CCCCCNc1nc(Nc2ccc([N+](=O)[O-])cc2)nc(OCC(F)(F)F)n1,74,35,–

# Second part, led by results:
remaining at 10 min [1] [%],remaining at 10 min [2] [%],SMILES,other results
100,85,CCS(=O)(=O)NC(=O)c1ccc(Nc2nc(NC3(c4ccc(Cl)cc4)CC3)nc(OCC(F)(F)F)n2)cc1,–
100,85,CS(=O)(=O)NC(=O)c1ccc(Nc2nc(NC3(c4ccc(Cl)cc4)CC3)nc(OCC(F)(F)F)n2)cc1,–
100,96,CC(C)S(=O)(=O)NC(=O)c1ccc(Nc2nc(NC3(c4ccc(Cl)cc4)CC3)nc(OCC(F)(F)F)n2)cc1,–
90,100,COC(=O)NCCS(=O)(=O)NC(=O)c1ccc(Nc2nc(NC3(c4ccc(Cl)cc4)CC3)nc(OCC(F)(F)F)n2)cc1,–
89,100,CN(C)CCS(=O)(=O)NC(=O)c1ccc(Nc2nc(NC3(c4ccc(Cl)cc4)CC3)nc(OCC(F)(F)F)n2)cc1,–
89,90,CC(C)(C)CNCCS(=O)(=O)NC(=O)c1ccc(Nc2nc(NC3(c4ccc(Cl)cc4)CC3)nc(OCC(F)(F)F)n2)cc1,clearance [3]: 1.35 L/h/kg; Vd [4]: 0.6 L/kg; half-life [5]: 2.6 h; AUC (Rattus norvegicus): Bld
96,98,O=C(NS(=O)(=O)CCN1CCCC1)c1ccc(Nc2nc(NC3(c4ccc(Cl)cc4)CC3)nc(OCC(F)(F)F)n2)cc1,–
100,100,NCCS(=O)(=O)NC(=O)c1ccc(Nc2nc(NC3(c4ccc(Cl)cc4)CC3)nc(OCC(F)(F)F)n2)cc1,–
89,100,CC(C)NCCS(=O)(=O)NC(=O)c1ccc(Nc2nc(NC3(c4ccc(Cl)cc4)CC3)nc(OCC(F)(F)F)n2)cc1,–
99,98,CCN(CC)CCS(=O)(=O)NC(=O)c1ccc(Nc2nc(NC3(c4ccc(Cl)cc4)CC3)nc(OCC(F)(F)F)n2)cc1,–
95,100,CC(=O)NCCS(=O)(=O)NC(=O)c1ccc(Nc2nc(NC3(c4ccc(Cl)cc4)CC3)nc(OCC(F)(F)F)n2)cc1,–
86,84,CC(C)C(=O)NCCS(=O)(=O)NC(=O)c1ccc(Nc2nc(NC3(c4ccc(Cl)cc4)CC3)nc(OCC(F)(F)F)n2)cc1,–
89,99,O=C(O)c1ccc(Nc2nc(NC3(c4ccc(Cl)cc4)CC3)nc(OCC(F)(F)F)n2)cc1,–
86,76,CN(C)S(=O)(=O)NC(=O)c1ccc(Nc2nc(NC3(c4ccc(Cl)cc4)CC3)nc(OCC(F)(F)F)n2)cc1,–
97,100,CNC(=O)NCCS(=O)(=O)NC(=O)c1ccc(Nc2nc(NC3(c4ccc(Cl)cc4)CC3)nc(OCC(F)(F)F)n2)cc1,–
100,85,O=C(NS(=O)(=O)C1CC1)c1ccc(Nc2nc(NC3(c4ccc(Cl)cc4)CC3)nc(OCC(F)(F)F)n2)cc1,–
